From patent US20230373934A1, “ANDROGEN RECEPTOR MODULATORS AND METHODS FOR THEIR USE” (ESSA Pharma, Inc., priority 2022, published 2023) come the findings set out here.

Series [1] in a line: Microsomal stability assay, liver microsome half-life (dog). Format: in vitro ADME. As to conditions: pH 7.4; dog liver microsomes 0.5 mg/mL + NADPH, 1 μM compound, 37° C; read-out: Liver microsome + NADPH T½ (min) Dog. The source says:
(§1) Microsomal Stability Assay: Microsomal stability assay is a widely used in vitro model to characterize the metabolic conversion by phase I enzymes, such as cytochrome P450 (CYP) enzymes. Since metabolism is known to be highly variable in different species, microsomal stability assay is commonly run in multiple species. Metabolic stability of testing compound can be evaluated using human, rat, mouse, or other animal liver or intestine microsomes to predict intrinsic clearance.
(§2) The assay was carried out in 96-well microtiter plates at 37° C. Reaction mixtures (25 μL) contained a final concentration of 1 μM test compound, 0.5 mg/mL liver microsomes protein, and 1 mM NADPH and/or 1 mM UDPGA (with alamethicin) in 100 mM potassium phosphate, pH 7.4 buffer with 3 mM MgCl2. The incubation was done with N=1, but duplicate incubation at each time point can be prepared if necessary. At each of the time points (for example, 0, 15, 30, and 60 minutes), 150 μL of quench solution (100% acetonitrile with 0.1% formic acid) with internal standard was transferred to each well. Besides the zero minute controls, mixtures containing the same components except the NADPH can also be prepared as the negative control. Verapamil was included as a positive control to verify assay performance. Plates were sealed, vortexed, and centrifuged at 4° C. for 15 minutes at 4000 rpm. The supernatant is transferred to fresh plates for LC/MS/MS analysis.
(§3) Summarized conditions: [Compound]=1 μM, [LM]=0.5 mg/mL, [NADPH]=1 mM and/or [UDPGA]=1 mM, Buffer=100 mM Potassium Phosphate, pH 7.4 with 3 mM MgCl2, Time=0, 15, 30, and 60 min, and Temperature=37° C.
(§4) All samples were analyzed on LC/MS/MS using an AB Sciex API 4000 instrument, coupled to a Shimadzu LC-20AD LC Pump system. Analytical samples were separated using a Waters Atlantis T3 dC18 reverse phase HPLC column (20 mm×2.1 mm) at a flow rate of 0.5 mL/min. The mobile phase consisted of 0.1% formic acid in water (solvent A) and 0.1% formic acid in 100% acetonitrile (solvent B).
(§5) The extent of metabolism is calculated as the disappearance of the test compound, compared to the 0-min time incubation. Initial rates are calculated for the compound concentration and used to determine half-life (t1/2).

A short description of series [2]: Microsomal stability assay, liver microsome half-life (monkey). As to conditions: pH 7.4; monkey liver microsomes 0.5 mg/mL + NADPH, 1 μM compound, 37° C; read-out: Liver microsome + NADPH T½ (min) Monkey. Format: in vitro ADME.
Text: as §1, §2, §3, §4, §5
In general terms: Liver microsomes are a subcellular fraction often used to study metabolism.

A short description of series [3]: Microsomal stability assay, liver microsome half-life (rat). As to conditions: pH 7.4; rat liver microsomes 0.5 mg/mL + NADPH, 1 μM compound, 37° C; read-out: Liver microsome + NADPH T½ (min) Rat. Format: in vitro ADME.
Text: as §1, §2, §3, §4, §5

Series [4] is described as follows: Microsomal stability assay, liver microsome half-life (mouse). The conditions noted are these: pH 7.4; mouse liver microsomes 0.5 mg/mL + NADPH, 1 μM compound, 37° C; read-out: Liver microsome + NADPH T½ (min) Mouse. Format: in vitro ADME.
Text: as §1, §2, §3, §4, §5

For the next series, the target named is T1, androgen receptor (AR) (Homo sapiens, UniProt P10275, T878A).
T1 construct: endogenous in cells; host or cells: LNCaP
T1 sequence (P10275 1-920 T878A): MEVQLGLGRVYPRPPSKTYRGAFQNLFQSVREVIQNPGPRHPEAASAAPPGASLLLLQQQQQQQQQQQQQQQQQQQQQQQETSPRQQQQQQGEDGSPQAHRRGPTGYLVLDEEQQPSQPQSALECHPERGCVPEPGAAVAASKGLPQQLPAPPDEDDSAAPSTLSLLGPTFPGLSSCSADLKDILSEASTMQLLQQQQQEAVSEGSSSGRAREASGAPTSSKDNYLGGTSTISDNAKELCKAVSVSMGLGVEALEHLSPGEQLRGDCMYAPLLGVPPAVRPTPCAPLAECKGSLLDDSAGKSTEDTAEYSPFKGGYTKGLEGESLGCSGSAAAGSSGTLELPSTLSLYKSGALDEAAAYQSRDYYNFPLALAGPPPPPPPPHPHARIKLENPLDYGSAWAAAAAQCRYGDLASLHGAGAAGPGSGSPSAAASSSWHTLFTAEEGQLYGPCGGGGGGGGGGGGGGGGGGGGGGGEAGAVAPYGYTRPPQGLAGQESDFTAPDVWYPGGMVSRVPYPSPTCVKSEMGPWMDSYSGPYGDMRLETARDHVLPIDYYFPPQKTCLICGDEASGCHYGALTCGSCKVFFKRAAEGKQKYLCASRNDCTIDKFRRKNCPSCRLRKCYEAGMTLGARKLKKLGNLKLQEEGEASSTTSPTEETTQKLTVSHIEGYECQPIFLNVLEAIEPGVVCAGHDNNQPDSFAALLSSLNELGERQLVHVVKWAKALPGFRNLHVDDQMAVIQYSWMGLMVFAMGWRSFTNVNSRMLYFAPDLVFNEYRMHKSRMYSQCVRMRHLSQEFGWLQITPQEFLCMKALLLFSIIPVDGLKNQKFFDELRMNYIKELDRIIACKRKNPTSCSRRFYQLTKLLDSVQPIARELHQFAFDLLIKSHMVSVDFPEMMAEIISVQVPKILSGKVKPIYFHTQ
In words: Androgen-induced PSA-luciferase assay, Luciferase Assay A (LNCaP transiently transfected with PSA (6.1 kb)-luciferase reporter). Type of series: cell-based. As to conditions: LNCaP cells, 1 h pretreatment, R1881 (1 nM) 24 h, read-out: PSA-Luc IC50 Range. A digest of the protocol:
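LNCaP cells transfected 24 h with PSA (6.1 kb)-luciferase reporter, pretreated 1 h with compound, then stimulated 24 h with R1881 (1 nM). Firefly luminescence in lysates normalized to protein content; IC50 from activity relative to R1881-induced vehicle control.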
In general terms: In a reporter assay the amount or activity of a reporter protein is the signal.

A short description of series [5]: Microsomal stability assay, liver microsome half-life (human). Type of series: in vitro ADME. As to conditions: pH 7.4; human liver microsomes 0.5 mg/mL + NADPH, 1 μM compound, 37° C; read-out: Liver microsome + NADPH T½ (min) Human.
Text: as §1, §2, §3, §4, §5

Bounds are passed on as bounds.

Consider `CS(=O)(=O)Nc1cnc2cc(-c3ccc(N(CC(F)(F)F)c4cc(Cl)c(OCCCl)c(C#N)c4)cc3)ccc2n1` [Compound A22, N-(6-(4-((3-chloro-4-(2-chloroethoxy)-5-cyanophenyl)(2,2,2-trifluoroethyl)amino)phenyl)quinoxalin-2-yl)methanesulfonamide], for which the half-life at 1 μM in series [1], in series [2], in series [3], in series [4] and in series [5] was over 120 min in each case. On androgen receptor (AR), the half-inhibitory concentration (IC50) (commonly the concentration needed to halve the response being measured) is 500 to 2000 nM.
Take `CS(=O)(=O)Nc1ccc2cc(-c3ccc(Oc4cc(Cl)c(OCCCl)c(C#N)c4)cc3)cnc2n1` [Compound A24]: the half-life at 1 μM in series [1] is 78 min; in series [2] it was over 120 min; in series [3], over 120 min; in series [4], over 120 min; in series [5] it was over 120 min. In addition, at androgen receptor (AR), the IC50 was 500 to 2000 nM.
In the case of `CC(C)(C)N(c1ccc(-c2ccc3nc(NS(C)(=O)=O)cnc3c2)cc1)c1cc(Cl)c(OCCCl)c(C#N)c1` [Compound A28], the half-life at 1 μM was over 120 min in series [1]; over 120 min in series [2]; over 120 min in series [3]; over 120 min in series [4]; 78 min in series [5]. Also, the IC50 on androgen receptor (AR) lay within 500 to 2000 nM.
As to `CC(C)(c1ccc(-c2cnc(N3CC(NS(C)(=O)=O)C3)nc2)cc1)c1cc(Cl)c(OCCCl)c(C#N)c1` [Compound A36, N-(1-(5-(4-(2-(3-chloro-4-(2-chloroethoxy)-5-cyanophenyl)propan-2-yl)phenyl)pyrimidin-2-yl)azetidin-3-yl)methanesulfonamide], the half-life at 1 μM is over 120 min in series [1]; 49 min in series [2]; 66 min in series [3]; over 120 min in series [4]; over 120 min in series [5]. The 50% inhibitory concentration (IC50) at androgen receptor (AR) was under 500 nM.
As to `CC(C)(c1ccc(-c2cnc(N3CC(NS(C)(=O)=O)C3)cn2)cc1)c1cc(Cl)c(OCCCl)c(C#N)c1` [Compound A37], the half-life at 1 μM is over 120 min in series [1]; 32 min in series [2]; over 120 min in series [3]; over 120 min in series [4]; over 120 min in series [5]. In addition, the IC50 at androgen receptor (AR) is under 500 nM.
Regarding `COc1c(Cl)cc(Oc2ccc(-c3ccc4nc(NS(C)(=O)=O)cnc4c3)cc2)cc1C#N` [Compound A43], the half-life at 1 μM in series [1], in series [2], in series [3], in series [4] and in series [5] was over 120 min in each case. Also, at androgen receptor (AR), the IC50 is under 500 nM.
`CC(C)(c1ccc(-c2cnn([C@H]3C[C@H](NS(C)(=O)=O)C3)c2)cc1)c1cc(Cl)c(OCCCl)c(C#N)c1` [Compound A44, N-((1r,3r)-3-(4-(4-(2-(3-chloro-4-(2-chloroethoxy)-5-cyanophenyl)propan-2-yl)phenyl)-1H-pyrazol-1-yl)cyclobutyl)methanesulfonamide]: the half-life at 1 μM in series [1] is over 120 min; in series [2] it was 117 min; in series [3], 112 min; in series [4], over 120 min; in series [5] it was over 120 min. Moreover, at androgen receptor (AR), the IC50 is under 500 nM.
Consider `CC(C)(c1ccc(OC2CC3(C2)CN(S(C)(=O)=O)C3)cc1)c1cc(Cl)c(OCCCl)c(C#N)c1` [Compound A72], for which the half-life at 1 μM in series [1], in series [2], in series [3], in series [4] and in series [5] was over 120 min in each case. The IC50 at androgen receptor (AR) fell in the range of 500 to 2000 nM.
As to `CC(C)(c1ccc(-c2cnn(C34CC(NS(C)(=O)=O)(C3)C4)c2)cc1)c1cc(Cl)c(OCCCl)c(C#N)c1` [Compound A75], the half-life at 1 μM in series [1], in series [2], in series [3], in series [4] and in series [5] was over 120 min throughout. For the same molecule, the IC50 on androgen receptor (AR) was in the range of 500 to 2000 nM.
As for `CS(=O)(=O)Nc1cnc2cc(-c3ccc(Oc4cc(Cl)c(OC5CCC5)c(C#N)c4)cc3)ccc2n1` [Compound A78], the half-life at 1 μM in series [1], in series [2], in series [3], in series [4] and in series [5] was over 120 min each time. Moreover, the IC50 at androgen receptor (AR) is 500 to 2000 nM.
For the molecule `CS(=O)(=O)Nc1cnc2cc(-c3ccc(N(c4cc(Cl)c(OCCCl)c(C#N)c4)C4CC4)cc3)ccc2n1` [Compound A80, N-(6-(4-((3-chloro-4-(2-chloroethoxy)-5-cyanophenyl)(cyclopropyl)amino)phenyl)quinoxalin-2-yl)methanesulfonamide], the half-life at 1 μM in series [1] is over 120 min; in series [2], over 120 min; in series [3] it was over 120 min; in series [4], 96 min; in series [5], over 120 min. Moreover, at androgen receptor (AR), the IC50 was under 500 nM.
For `CN(c1ccc(-c2ccc3nc(NS(C)(=O)=O)cnc3c2)cc1)c1cc(Cl)c(OCCCl)c(C#N)c1` [Compound A81], the half-life at 1 μM in series [1], in series [2], in series [3], in series [4] and in series [5] was over 120 min each time. Besides, the IC50 at androgen receptor (AR) was under 500 nM.
Regarding `CCN(c1ccc(-c2ccc3nc(NS(C)(=O)=O)cnc3c2)cc1)c1cc(Cl)c(OCCCl)c(C#N)c1` [Compound A82], the half-life at 1 μM in series [1], in series [2], in series [3], in series [4] and in series [5] was over 120 min each time. The IC50 on androgen receptor (AR) was under 500 nM.
With `CS(=O)(=O)Nc1cnc2cc(-c3ccc(Oc4cc(Cl)c(N5CCOCC5)c(C#N)c4)cc3)ccc2n1` [Compound A83], the half-life at 1 μM in series [1], in series [2], in series [3], in series [4] and in series [5] was over 120 min throughout. At androgen receptor (AR), the IC50 lay in the range of 500 to 2000 nM.
